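These data come from cells grown in 96-well plates and exposed to compound for 48 hours at five concentrations. GI50: concentration for 50% inhibition of growth. The concentration for full growth arrest is given as TGI.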 Where a SMILES comes first, the peptide text is derived from it.
Tests used:
Assay in all cases: growth of human tumour cells (NCI), 48 h
A498 renal = tested on: A498 renal
HT29 colon = tested on: HT29 colon
A549 NSCLC = tested on: A549 NSCLC
SK-MEL-5 melanoma = tested on: SK-MEL-5 melanoma
SF-539 CNS = tested on: SF-539 CNS
PC-3 prostate = tested on: PC-3 prostate
MALME-3M melanoma = tested on: MALME-3M melanoma
SK-MEL-2 melanoma = tested on: SK-MEL-2 melanoma
MCF7 breast = tested on: MCF7 breast
OVCAR-4 ovarian = tested on: OVCAR-4 ovarian

Compound	TGI (A498 renal) [µM]	TGI (HT29 colon) [µM]	TGI (A549 NSCLC) [µM]	TGI (SK-MEL-5 melanoma) [µM]	TGI (SF-539 CNS) [µM]	TGI (PC-3 prostate) [µM]	TGI (MALME-3M melanoma) [µM]	TGI (SK-MEL-2 melanoma) [µM]	TGI (MCF7 breast) [µM]	TGI (OVCAR-4 ovarian) [µM]	GI50 (A498 renal) [µM]	GI50 (HT29 colon) [µM]	GI50 (A549 NSCLC) [µM]	GI50 (SK-MEL-5 melanoma) [µM]	GI50 (SF-539 CNS) [µM]	GI50 (PC-3 prostate) [µM]	GI50 (MALME-3M melanoma) [µM]	GI50 (SK-MEL-2 melanoma) [µM]	GI50 (MCF7 breast) [µM]	GI50 (OVCAR-4 ovarian) [µM]
COC(CN(C=O)[C@@H](c1ccc(Cl)cc1)c1cc2ccccc2o1)OC	33.1	36.3	45.4	28.9	34.3	45.6	11.5	31.9	34.8	40										
C1=CC(=[N+]2N=C(c3ccccc3)CC2c2ccccc2)C=CC1=C1SC(c2ccccc2)(c2ccccc2)c2ccccc21 (stereo not drawn)	> 100	> 100	> 100	> 100	> 100	> 100	> 100	> 100	> 100											
O=[N+]([O-])c1ccc2c(c1)nc(Cc1ccc(Cl)cc1)n2C[C@@H]1CCCN2CCCCC12 (stereo partly drawn)	21.7	28.8	42.1	29.5	35.1	> 51.7	26.2	30.7	22.5	> 44										
O=C1/C(=C\c2ccc(F)cc2)CCOc2c1ccc1ccccc21	> 62.1	> 56.8	> 70.3	47.9	48.5	> 100	37.7	> 100	51.9	> 100										
COc1cc2c(cc1OCCCCCCCCN1C(=O)c3cccc4cccc(c34)C1=O)N=C[C@@H]1CCCN1C2=O		36.2	> 100	25.4	13.2	27.6	49.2	74.6	22.3	7.41										
COC(=S)OC1CC(n2cnc3c(N)ncnc32)OC1CO[Si](C)(C)C(C)(C)C (stereo not drawn)	56.9	30.1				44.1	66.8	53.8	44.8	44										
CCCSc1ccc2[nH]c(N3C(=O)/C(=C/c4cc(OC)c(OC)c(OC)c4)N=C3c3ccccc3)cc2c1	> 25.8	> 37.5	> 25.3	19	23.6	> 37.5	> 37.5	> 37.5	> 37.5	> 37.5										
CSCCC(NC(=O)OCc1ccccc1)P(=O)(O)c1ccccc1 (stereo not drawn)		> 100	> 100	> 100		> 100		> 100	> 100	> 100										
CC(=O)c1ccc2c(c1)N(CCCN1CCN(CCO)CC1)c1ccccc1C2	30.1	22.4	33.3	25.6	33.1	27.8	33	33.5		30.2										
Cc1ccccc1NC(=O)CC(=O)N1N=C(N2c3ccccc3Sc3ccccc32)CC1c1ccccc1 (stereo not drawn)	> 100	> 100	> 100	> 100	> 100		> 100			> 100										
O=C1CC2(CCC(O)(c3cccs3)C(C(=O)c3cccs3)C2)C(=O)c2ccccc2N1 (stereo not drawn)	> 100	> 100	> 100	> 100	> 100	> 100	> 100	> 100	> 100											
CC(=O)Oc1ccc(CO)cc1OC(C)=O	> 100	> 100	> 100	> 100			> 100	> 100		> 100										
O=c1[nH]c(Nc2ccc(Cl)cc2)nc2nc[nH]c12	> 100	> 100	> 100	> 100	> 100	> 100	> 100	> 100	> 100	> 100										
COc1ccc(C(=O)N(C(=O)N2CCN(c3ccccc3)CC2)S(=O)(=O)c2ccccc2)cc1	> 100	> 100	88.8	28	35.9	> 100	93.4	35	> 100	> 100										
CC(C)(C)[Si](C)(C)OCC1OC(n2cnc3c(N)ncnc32)CC1OS(C)(=O)=O (stereo not drawn)	> 100	> 100				> 100	> 100	> 100	> 100	> 100										
O=S(=O)(O)c1cc(N=[N+]([O-])c2cc(S(=O)(=O)O)c3ccccc3c2)cc2ccccc12	> 100	> 100	> 100	32.8	60.2	> 100	> 100	66.1	> 100	38.2										
CCC(C)C(NC(=O)C1CCCN1C(=O)C(CC(C)C)NC(=O)C(CC(C)C)NC(=O)C(N)CC(C)C)C(=O)NC(C(=O)NCC(=O)NC(CC(N)=O)C(=O)NC(CC(C)C)C(=O)NC(CC(C)C)C(=O)NC(CC(C)C)C(N)=O)C(C)C (stereo not drawn) (H-LLLPIVGNLLL-NH2; configuration not given here)	> 50	> 50	> 50	> 50	> 50	> 50	> 50	> 50	> 50	> 50										
Cc1cnoc1NS(=O)(=O)c1ccc(Nc2nnc(/C=C/c3c(O)ccc4ccccc34)c(=O)n2N)cc1		> 100	> 100				65.5		47.5	> 100										
Cc1nc2ncn3c(c-2c1Cc1ccccc1)NC=C(O)N3	> 100	> 100	> 100	> 100	> 100	> 100	> 100	> 100	> 100	> 100										
COC(=O)C[C@H](COCc1ccccc1)NC(=O)C[C@H](COCc1ccccc1)NC(=O)OC(C)(C)C	61.9	> 100	62.4	> 100	> 100	77.6	> 100	> 100	51.1	36.7										
CCCCCOC(=O)c1cc2cc(CCl)ccc2oc1=O	5.39	35.4	41	13.4	> 93.3	15.2	8.33	2.08	> 56.9	18.6										
Nc1ccc(-c2nc3cc(F)ccc3s2)cc1CO	0.0141	> 100	> 100	> 100	46.7	> 76.1	> 100	> 62.9	19.7	> 100										
O=C1c2ccccc2C(C2c3ccccc3C(=O)c3cc(Br)ccc32)c2ccc(Br)cc21 (stereo not drawn)	> 100	> 100	> 100	> 100		> 100	> 100		> 100	> 100										
O=C(O)C(O)C(O)C(O)C(=O)CO (stereo not drawn)	> 100	> 100	> 100	> 100	> 100	> 100	> 100	> 100	> 100	> 100										
COC1CC(CC2CCC(C)C(C(C)C(=O)O)O2)OC2(OC(C)(C3CCC(C)(C4OC(C5OC(O)(CO)C(C)CC5C)CC4C)O3)CC2C)C1C (stereo not drawn)	3.39	27.4	21.8	1.83	10.3	49	0.798	5.22	> 27.9	53.1										
NC(=S)N1N=C(c2ccccc2O)CC1c1ccccc1 (stereo not drawn)	30.1	28.9	84.6	23.1	36.1	22.8	42.3	20.3	20.8	67.1										
CCCN1C(=O)CSC1=Nc1ccc2cc3ccc(N=C4SCC(=O)N4CCC)cc3nc2c1	> 100	> 100	> 100	> 100	> 100	> 100	81.7	> 100	> 100	> 100	> 100	90.6	> 100	49	59.2	78.1	17.5	> 100	77.6	45.8
N#Cc1c(N)nc2c(c1-c1ccc(Br)cc1)CSc1ccccc1-2	> 100	> 100	> 100	> 100	> 100	86.5	> 100	> 100	> 100	> 100										
O=c1c2ccccc2[nH]c(=S)n1-c1ccc(N=Nc2cccc3cc(O)ccc23)cc1		> 100	> 100	> 100	> 100	> 100	> 100	> 100	> 100	> 100										
CC1CN=C(NS(=O)(=O)c2cc(C(=O)Nc3ccc(F)cc3)c(Cl)cc2S)NN1 (stereo not drawn)	64.1	> 100	> 100	> 100	> 100	> 100	70.1	76.7	> 100	> 100										

Source: PubChem BioAssay (NCI)
